From patent US12590123B2, “Compounds and methods for treating cancer, viral infections, and allergic conditions” (Washington University, priority 2019, dated 2026)
Where two headings read alike, the source gives them in different places. Starred links: 1 amine or outer side, 2 acyl side, 3 side chain; linkers in the order of their positions; H or OH if unused. Positions of bridges follow the written chain, without caps; N, C: chain ends. Non-standard residues stand in square brackets, D forms with d. Residues, ends and D or L forms follow the SMILES beside them. X6 = N=C(N)NCCC[C@H](N[*:1])C(=O)c1nc2ccc(C(=O)[*:2])cc2s1

Key:
Assay type in all cases: biochemical
[1] = target: T1, recombinant HGFA serine protease domain (Homo sapiens, UniProt Q04756); experiment: Fluorescent kinetic enzyme assay of HGFA activity (Boc-QLR-AMC)
T1 construct: His6 tag (N); seven amino acid spacer plus TEV cleavage site (N); made in house; host or cells: High 5 insect cells (baculovirus; Sf9 for virus production)
T1 sequence (Q04756 373-655): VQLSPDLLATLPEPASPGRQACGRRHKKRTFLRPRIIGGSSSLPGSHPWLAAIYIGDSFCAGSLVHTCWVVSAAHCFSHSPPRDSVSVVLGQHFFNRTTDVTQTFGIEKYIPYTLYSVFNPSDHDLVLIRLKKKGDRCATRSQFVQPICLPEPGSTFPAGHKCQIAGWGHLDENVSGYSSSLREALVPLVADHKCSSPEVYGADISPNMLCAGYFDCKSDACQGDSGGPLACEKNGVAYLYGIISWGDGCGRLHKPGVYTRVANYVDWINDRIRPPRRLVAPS
Excerpt: The compounds prepared in Examples 1 to 8 were subjected to a series of inhibitions studies. The compounds were first tested in an HGFA enzymatic assay using the fluorogenic substrate Boc-QLR-AMC with a recombinant form of the HGFA serine protease domain.
This PCR product was cloned into the SfoI-HindIII sites of a modified pFastBac HT baculovirus expression vector (Addgene, Cambridge, MA). This vector contains a six amino His tag followed by a seven amino spacer and a seven amino acid TEV cleavage site placed immediately downstream of the honey bee melittin signal peptide. Using a modified Bac to Bac Expression System (Life Technologies, Carlsbad, CA), recombinant HGFA bacmids were obtained by transforming DH10Bac Escherichia coli cells. To obtain HGFA containing baculovirus, purified bacmids were transfected into Sf9 insect cells. After 5 days in culture at 27° C., media was harvested from transfected Sf9 cells. This media was used to prepare baculovirus infected insect cells (BIICs). These BIIICs were used to infect High 5 insect cells. Four days post infection, media was harvested, and recombinant protein was prepared as follows. Media was chilled to 4° C. and spun at 4000×g for 20 minutes (all subsequent steps were performed at 4° C. unless noted). Clarified media was passed first through a Whatman GF/B 1 um (#1821-047, GE Healthcare Life Sciences, Piscataway, NJ) and then a 0.22 μm PES membrane (#99955, TPP Techno Plastic Products AG, Trasadingen, Switzerland) and then concentrated using a Pall Centramate tangential flow system and Centramate T-series Cassette (#OS010T12, Pall Corporation, Port Washington, NY). Concentrated media was then buffer exchanged in two steps, five volumes of 50 mM Na-phosphate, 500 mM NaCl, pH 6.2, followed by five volumes of 50 mM Na-phosphate, 500 mM NaCl, pH 7.5. […] After mixing this slurry for 12 hours, nickel agarose beads were allowed to settle by gravity and then loaded into a column. Beads were washed with buffer (25 mM Na-phosphate, 500 mM NaCl, 25 mM imidazole, pH 8) and the bound protein eluted using (25 mM Na-phosphate, 500 mM NaCl, 250 mM imidazole, pH 8). Using a Amicon Ultra-4 Centrifugal filters (#UFC801008, Merck Millipore, Ltd., Tullagreen, Ireland), peak protein fractions were concentrated and run over a Superdex-200 10/300 GL column (GE Healthcare Life Sciences, Piscataway, NJ) in 10 mM Tris, 200 mM NaCl, 0.2 mM EDTA, pH 8. HGFA containing fractions were pooled, concentrated, made 50% glycerol, and stored at minus 20° C. Protein was quantitated using a modified Lowry protein assay (#500-0006, Bio-Rad Laboratories, Hercules, CA) and specific activity determined using Boc-QLR-AMC substrate.
Fluorescent kinetic enzyme assays of HGFA, matriptase, and hepsin activity: Compounds (0-20 μM final concentration in reaction) were diluted in DMSO (2% DMSO final concentration in reaction) and then mixed with either recombinant HGFA serine protease domain, matriptase (#3946-SE-010, R&D Systems, Minneapolis, Minnesota), or activated hepsin* (#4776-SE-010, R&D Systems, Minneapolis, Minnesota) in black 384 well plates (Corning #3575. Coming, NY). The final assay concentration for HGFA, matriptase, and hepsin, were 6.25 nM, 0.2 nM, and 0.3 nM, respectively in TNC buffer (25 mM Tris, 150 mM NaCl, 5 mM CaCl2, 0.01% Triton X-100, pH 8). After thirty minutes of incubation at room temperature, Boc-QLR-AMC substrate was added (HGFA assay) or Boc-QAR-AMC substrate (matriptase, and hepsin assays). Fluorescence (excitation at 380 nm and emission at 460 nm) was kinetically measured at room temperature over a 1 hour time period using a Biotek Synergy 2 plate reader (Winnoski, VT). From a plot of the mean reaction velocity versus the inhibitor concentration, a non-linear four parameter curve fit was performed using GraphPad Prism (GraphPad Software, San Diego, CA) to determine inhibitor IC50s. The IC50 values were determined from the average of three or more separate experimental determinations. […]

matriptase = target: T2, matriptase (Homo sapiens, UniProt Q9Y5Y6); experiment: Fluorescent kinetic enzyme assay of matriptase activity (Boc-QAR-AMC)
T2 construct: purchased R&D Systems 3946-SE-010
T2 sequence (Q9Y5Y6 615-855 limits assumed): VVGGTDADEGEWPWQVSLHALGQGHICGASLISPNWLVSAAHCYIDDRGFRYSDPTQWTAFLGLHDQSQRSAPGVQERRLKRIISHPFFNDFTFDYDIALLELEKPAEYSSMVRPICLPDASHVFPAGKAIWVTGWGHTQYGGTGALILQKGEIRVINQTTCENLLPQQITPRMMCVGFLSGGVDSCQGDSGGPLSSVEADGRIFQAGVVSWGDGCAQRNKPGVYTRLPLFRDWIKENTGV
Procedure: (§4) After thirty minutes of incubation at room temperature, Boc-QLR-AMC substrate was added (HGFA assay) or Boc-QAR-AMC substrate (matriptase, and hepsin assays). […] From a plot of the mean reaction velocity versus the inhibitor concentration, a non-linear four parameter curve fit was performed using GraphPad Prism (GraphPad Software, San Diego, CA) to determine inhibitor IC50s. The IC50 values were determined from the average of three or more separate experimental determinations. Apparent Ki values were calculated using the Cheng and Prusoff equation (Ki=IC50/(1+[S]/Km).
(§5) Inhibitors were pre-incubated with protease followed by the addition of the substrate. Inhibition of substrate proteolysis derived fluorescence was monitored kinetically over a period of one hour.

activated hepsin = target: T3, activated hepsin (Homo sapiens, UniProt P05981); experiment: Fluorescent kinetic enzyme assay of hepsin activity (Boc-QAR-AMC)
T3 construct: purchased R&D Systems 4776-SE-010
T3 sequence (P05981 163-417 limits assumed): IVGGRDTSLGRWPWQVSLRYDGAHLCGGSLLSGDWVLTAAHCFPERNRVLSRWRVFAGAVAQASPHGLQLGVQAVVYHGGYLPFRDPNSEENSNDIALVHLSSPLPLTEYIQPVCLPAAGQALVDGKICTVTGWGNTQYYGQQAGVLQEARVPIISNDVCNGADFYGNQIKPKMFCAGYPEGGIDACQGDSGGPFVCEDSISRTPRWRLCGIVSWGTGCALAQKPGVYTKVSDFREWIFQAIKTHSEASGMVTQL
T3 sequence (P05981 1-162 partner limits assumed): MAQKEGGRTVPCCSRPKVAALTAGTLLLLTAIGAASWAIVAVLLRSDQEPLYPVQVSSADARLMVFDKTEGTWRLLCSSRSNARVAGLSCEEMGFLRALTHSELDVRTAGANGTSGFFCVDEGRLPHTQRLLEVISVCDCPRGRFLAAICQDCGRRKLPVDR
Procedure: as §4, §5

recombinant thrombin = recombinant thrombin (Homo sapiens, UniProt P00734); experiment: Chromogenic kinetic enzyme assay of thrombin (S2238)
Procedure: (§1) Using GraphPad Prism (GraphPad Software, San Diego, CA), a four-parameter curve fit was used to determine the inhibitor IC50s from a plot of the mean reaction velocity versus the inhibitor concentration. The IC50 values represent the average of three or more separate experimental determinations. Apparent Ki values were calculated from the IC50 values using the Cheng and Prusoff equation (Ki=IC50/(1+[S]/Km).
(§2) Using GraphPad Prism version 6.04 software program, (GraphPad Software, San Diego, CA, graphpad.com), a four parameter curve fit was used to determine the inhibitor IC50s from a plot of the mean reaction velocity versus the inhibitor concentration.
(§3) Fluorescent inhibitor and chromogenic proteolytic assays were performed for compounds prepared in Example 11 in general accordance with the procedures described in Example 9.

Factor Xa = Factor Xa (Homo sapiens, UniProt P00742); experiment: Chromogenic kinetic enzyme assay of Factor Xa (S2222)
Sequence of Factor Xa (P00742 235-488 limits assumed): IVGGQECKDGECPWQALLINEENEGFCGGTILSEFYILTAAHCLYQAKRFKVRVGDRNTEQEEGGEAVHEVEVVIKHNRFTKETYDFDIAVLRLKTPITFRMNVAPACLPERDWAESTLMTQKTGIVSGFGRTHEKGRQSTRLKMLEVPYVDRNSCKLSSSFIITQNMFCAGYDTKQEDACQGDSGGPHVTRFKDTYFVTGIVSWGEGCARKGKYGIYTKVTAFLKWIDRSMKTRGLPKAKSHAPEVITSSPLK
Sequence of Factor Xa (P00742 41-179 partner limits assumed): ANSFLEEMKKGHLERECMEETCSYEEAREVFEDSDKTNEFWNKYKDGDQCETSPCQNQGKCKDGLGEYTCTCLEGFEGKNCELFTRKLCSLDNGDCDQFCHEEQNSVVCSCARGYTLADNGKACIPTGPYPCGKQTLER
Procedure: as §1, §2, §3

[2] = Example 12, read-out: IC50 for matriptase
[3] = Example 12, read-out: IC50 for hepsin
[4] = Table 3, average of three experiments, read-out: Thrombin IC50
[5] = Table 2, chromogenic assay, read-out: Thrombin* (IC50 nM)
[6] = Table 2, read-out: HGFA (IC50 nM)
[7] = Table 2, read-out: Matriptase (IC50 nM)
[8] = Table 2, read-out: Hepsin (IC50 nM)
[9] = Table 2, chromogenic assay, read-out: Factor Xa* (IC50 nM)

SMILES	IC50 ([1]; Table 3, average of three experiments, read-out: HGFA IC50)	IC50 (matriptase; [2])	IC50 (activated hepsin; [3])	IC50 (recombinant thrombin; [4])	IC50 (Factor Xa; Table 3, average of three experiments, read-out: Factor Xa IC50)	IC50 (recombinant thrombin; [5])	IC50 [1, 6]	IC50 (matriptase; [7])	IC50 (activated hepsin; [8])	IC50 (Factor Xa; [9])
CC(C)C[C@H](NC(=O)OC1(Cc2ccccc2)CCNCC1)C(=O)N[C@@H](CCCNC(=N)N)C(=O)c1nc2ccccc2s1 [Compound 8b, 4-benzylpiperidin-4-yl((S)-1-(((S)-1-(benzo[d]thiazol-2-yl)-5-guanidino-1-oxopentan-2-yl)amino)-4-methyl-1-oxopentan-2-yl)carbamate]	1200 nM	30 nM	0.6 nM	> 20000 nM						
CC(=O)N1CCC(CCc2ccccc2)(OC(=O)N[C@@H](CC(C)C)C(=O)N[C@@H](CCCNC(=N)N)C(=O)c2nc3ccccc3s2)CC1 [Compound 8c, 1-acetyl-4-phenethylpiperidin-4-yl ((S)-1-(((S)-1-(benzo[d]thiazol-2-yl)-5-guanidino-1-oxopentan-2-yl)amino)-4-methyl-1-oxopentan-2-yl)carbamate]		70 nM	0.5 nM	7700 nM	2000 nM					
CSCCC[C@H](NC(C)=O)C(=O)N[C@@H](CCC(N)=O)C(=O)N[C@@H](Cc1ccccc1)C(=O)N[C@@H](CCCNC(=N)N)C(=O)c1nc2ccccc2s1 [MM3130, Ac-MQFR-kbt]						> 20000 nM				
CC(=O)N[C@@H](CCC(N)=O)C(=O)N[C@@H](Cc1ccccc1)C(=O)NC(CCCNC(=N)N)C(=O)c1nc2ccccc2s1 (stereo partly drawn) [MM3144, Ac-QFR-kbt]						> 20000 nM				
CC(=O)N[C@H]1CCCCNC(=O)CCC(C(=O)N[C@@H](CCCNC(=N)N)C(=O)c2nc3ccccc3s2)NC(=O)[C@H](CCCNC(=N)N)NC1=O (stereo partly drawn) [VD2109B]						> 20000 nM	2520 nM	0.07 nM	0.04 nM	155 nM
CC(=O)N[C@H]1CC(=O)NCCCC[C@@H](C(=O)N[C@@H](CCCNC(=N)N)C(=O)c2nc3ccc(C(=O)N[C@@H](C(N)=O)C(C)C)cc3s2)NC(=O)[C@H](CC(C)C)NC1=O [VD3056, 2-(((3S,6S,14S)-6-acetamido-3-isobutyl-2,5,8-trioxo-1,4,9-triazacyclotetradecane-14-carbonyl)-L-arginyl)-N—((R)-1-amino-3-methyl-1-oxobutan-2-yl)benzo[d]thiazole-6-carboxamide] (Ac-DLK[X6][dV]-NH2; lactam 1-3)						33.9 nM	5380 nM	11.2 nM	5.4 nM	118 nM
CC(=O)N[C@H]1CC(=O)NCCCC[C@@H](C(=O)N[C@@H](CCCNC(=N)N)C(=O)c2nccs2)NC(=O)[C@H](CC(C)C)NC1=O [VD3076, (3S,6S,14S)-6-acetamido-N—((S)-5-guanidino-1-oxo-1-(thiazol-2-yl)pentan-2-yl)-3-isobutyl-2,5,8-trioxo-1,4,9-triazacyclotetradecane-14-carboxamide]						7940 nM		41.3 nM	136 nM	1360 nM
CC(=O)N[C@H]1CC(=O)NCCCC[C@@H](C(=O)N[C@@H](CCCNC(=N)N)C(=O)c2nc3ccccc3s2)NC(=O)[C@H](C)NC1=O [VD3141, (3S,6S,14S)-6-acetamido-N—((S)-1-(benzo[d]thiazol-2-yl)-5-guanidino-1-oxopentan-2-yl)-3-methyl-2,5,8-trioxo-1,4,9-triazacyclotetradecane-14-carboxamide]						> 20000 nM	13700 nM	2.5 nM	8.8 nM	
CC(=O)N[C@H]1CC(=O)NCCCC[C@@H](C(=O)N[C@@H](CCCNC(=N)N)C(=O)c2nc3ccccc3s2)NC(=O)[C@H]([C@H](C)O)NC1=O [VD3157, (3S,6S,14S)-6-acetamido-N—((S)-1-(benzo[d]thiazol-2-yl)-5-guanidino-1-oxopentan-2-yl)-3-((S)-1-hydroxyethyl)-2,5,8-trioxo-1,4,9-triazacyclotetradecane-14-carboxamide]						> 20000 nM	11800 nM	3.7 nM	5.8 nM	13300 nM
CC(=O)N[C@H]1CC(=O)NCCCC[C@@H](C(=O)N[C@@H](CCCNC(=N)N)C(=O)c2nc3ccccc3s2)NC(=O)[C@H](Cc2ccc(O)cc2)NC1=O [VD3158, (3S,6S,14S)-6-acetamido-N—((S)-1-(benzo[d]thiazol-2-yl)-5-guanidino-1-oxopentan-2-yl)-3-(4-hydroxybenzyl)-2,5,8-trioxo-1,4,9-triazacyclotetradecane-14-carboxamide]						> 20000 nM		6.1 nM	44 nM	17000 nM
CC(=O)N[C@H]1CCCCn2cc(nn2)C[C@H](C(=O)N[C@H](CCCNC(=N)N)C(=O)c2nc3ccccc3s2)NC(=O)[C@H](CC(C)C)NC1=O [VD4118B]							10900 nM	91.2 nM	137 nM	9540 nM
CC(=O)N[C@H]1CCCCn2cc(nn2)C[C@H](C(=O)N[C@@H](CCCNC(=N)N)C(=O)c2nc3ccccc3s2)NC(=O)[C@H](CC(C)C)NC1=O [VD4118]							15600 nM	19.5 nM	117 nM	1930 nM
CC(=O)N[C@H]1Cc2ccc(cc2)OCCCC[C@@H](C(=O)N[C@@H](CCCNC(=N)N)C(=O)c2nc3ccccc3s2)NC(=O)[C@@H](Cc2c[nH]c3ccccc23)NC1=O [VD4162A]						> 20000 nM	52 nM	30.8 nM		7470 nM
CC(=O)N[C@H]1Cc2ccc(cc2)OCCCC[C@@H](C(=O)N[C@@H](CCCNC(=N)N)C(=O)c2nc3ccccc3s2)NC(=O)[C@@H](Cc2c[nH]c3ccccc23)NC1=O [VD4162B]						14600 nM				1110 nM
